In US12171866B2, “Lipid emulsion for parenteral nutrition comprising GPC” (BAXTER INTERNATIONAL INC., priority 2018, dated 2024):
“Also recorded” adds a separate entry of the source.

Key:
[1] = system: male Sprague-Dawley rats with steatosis, induced by choline and methionine deficient (MCD) diet; assay: Liver histopathology, vacuolation, choline derivatives alone, Step #2 (FIG. 3A); format: in vivo, rat; conditions: no DHA and ARA
From the text: (§1) The effects of GPC as well as of the combination of DHA, ARA and GPC were investigated in a sick animal model, wherein male Sprague-Dawley rats with steatosis, induced by choline and methionine deficient (MCD) diet (S SNIFF MCD pelleted choline/methionine deficient diet (SSNIFF Spezialdiäten GmbH, Soest, Germany, Product No. E15653-94)) were kept on parenteral nutrition.
(§2) Parenteral nutrition started after 14 days under MCD diet. First measurements were done after 5 days of parenteral nutrition, followed by measurements after 9 and 17 days. The daily lipid uptake was 2.31 g/kg/d. The rats were split into several groups as set forth below in Table I.
(§3) Two groups served as control groups, wherein a first group was treated with saline solution (0.90% w/v of NaCl in water for injection). A second group received a lipid emulsion (“LE 10%”) containing refined olive oil (80.0 g/L) and refined soybean oil (20.0 g/L) in water for injection, pH 6-8; LE 10% further contained egg lecithin (6.0 g/L), glycerol (11.25 g/L) and sodium oleate (0.15 g/L). LE 10% contained 100 g/L lipids.
(§4) Various choline derivatives selected from the group consisting of choline chloride, glycerophosphocholine (GPC) and cytidine diphosphate-choline (CDP-choline) were added in two concentrations (low/high) to LE 10%, respectively, see Table I (Step #2). “Low” refers to a concentration of 15 mmol/L lipid emulsion, “high” refers to a concentration of 31 mmol/L of lipid emulsion. Choline chloride (2-Hydroxyethyl)trimethylammonium chloride). Pharmaceutical Secondary Standard, was purchased from Sigma-Aldrich (Merck KGaA, Germany). CDP-choline (prepared by fermentation) was from TCI Europe N.V. (Antwerp, Belgium). Glycerophosphocholine, prepared from egg phosphatide by saponification, was supplied by Lipoid GmbH, Germany. DHA (from algae, Schizochytrium sp.) and ARA (from fungi, Mortierella alpina) were purchased from BASF AG, Germany, Vitamin E was purchased from ADM (IL, U.S.A.)

[2] = Stability of lipid emulsions upon sterilization in the presence of choline derivatives; format: physicochemical; conditions: for Stability of lipid emulsion upon sterilization (Comment): heat sterilization; for stability of the lipid emulsions during sterilization (heat): lipid emulsions prepared as in Example 1
From the text: In a first step, raw phases are heated up. […] The receiving vessel is closed and flushed with nitrogen.

[3] = system: male Sprague-Dawley rats with steatosis, induced by choline and methionine deficient (MCD) diet; assay: Alanine aminotransferase (ALT) activity in plasma, animal study Step #2 (FIG. 1); format: in vivo, rat
Experimental: ALT activity is determined by a modification recommended by the International Federation of Clinical Chemistry (IFCC), see also Example 2. ALT catalyzes the reaction of alpha-ketoglutarate with L-alanine to form L-glutamate and pyruvate. Under the action of LDH, pyruvate converts to lactate, and NADH is converted to NAD. The decrease in absorbance of NADH, measured at 340 nm (secondary wavelength is 700 nm), is directly proportional to the serum activity of ALT. It is a kinetic reaction. In general, serum is used for analysis. The serum is separated from the cells within 2 hours of collection and stored at -70° C. until assayed, Monitoring the ALT activity over time in an animal model is used herein as one straightforward and conclusive way to determine the efficacy of GPC in treating liver disease, specifically liver damage caused by a choline-deficient diet (Examples 1 and 2, FIGS. 1 and 2), Plasma-free choline concentration can be determined by high-pressure liquid chromatography (HPLC) and gas chromatography-mass spectrometry according to protocols known in the art (Pomfret et. al.: Measurement of choline and choline metabolite concentrations using high pressure liquid chromatography and gas chromatography-mass spectrometry. Anal Biochem. 1989; 180: 85-90). The effects of GPC as well as of the combination of DHA, ARA and GPC were investigated in a sick animal model, wherein male Sprague-Dawley rats with steatosis, induced by choline and methionine deficient (MCD) diet (S SNIFF MCD pelleted choline/methionine deficient diet (SSNIFF Spezialdiäten GmbH, Soest, Germany, Product No. E15653-94)) were kept on parenteral nutrition. Steatosis was confirmed in the respective groups by histopathology (Example 3). Parenteral nutrition started after 14 days under MCD diet. First measurements were done after 5 days of parenteral nutrition, followed by measurements after 9 and 17 days. The daily lipid uptake was 2.31 g/kg/d. The rats were split into several groups as set forth below in Table I. Two groups served as control groups, wherein a first group was treated with saline solution (0.90% w/v of NaCl in water for injection). A second group received a lipid emulsion (“LE 10%”) containing refined olive oil (80.0 g/L) and refined soybean oil (20.0 g/L) in water for injection, pH 6-8; LE 10% further contained egg lecithin (6.0 g/L), glycerol (11.25 g/L) and sodium oleate (0.15 g/L). LE 10% contained 100 g/L lipids. […] Pharmaceutical Secondary Standard, was purchased from Sigma-Aldrich (Merck KGaA, Germany). […] As described before, liver damage (cholestasis) may be determined by increased aminotransferase levels. ALT activity was determined with an ADVIA 1800 blood biochemistry analyzer/IFCC modified (Siemens) according to standard protocols such as described before.

[4] = system: male Sprague-Dawley rats with steatosis, induced by choline and methionine deficient (MCD) diet; assay: Liver weight to body weight ratio (FIG. 4); format: in vivo, rat
From the text: as §1, §2, §3, §4
The study groups as described in Example 1 were further evaluated with regard to the development of liver weight versus body weight. An increase in liver weight which is not proportional to the increase of body weight is typical for the development of liver damage, specifically steatosis, as described before.

[5] = system: male Sprague-Dawley rats with steatosis, induced by choline and methionine deficient (MCD) diet; assay: ALT activity in percent of the normal value, animal study Step #3 (FIG. 2); format: in vivo, rat
Experimental: ALT activity is determined by a modification recommended by the International Federation of Clinical Chemistry (IFCC), see also Example 2. ALT catalyzes the reaction of alpha-ketoglutarate with L-alanine to form L-glutamate and pyruvate. Under the action of LDH, pyruvate converts to lactate, and NADH is converted to NAD. The decrease in absorbance of NADH, measured at 340 nm (secondary wavelength is 700 nm), is directly proportional to the serum activity of ALT. It is a kinetic reaction. In general, serum is used for analysis. The serum is separated from the cells within 2 hours of collection and stored at −70° C. until assayed, Monitoring the ALT activity over time in an animal model is used herein as one straightforward and conclusive way to determine the efficacy of GPC in treating liver disease, specifically liver damage caused by a choline-deficient diet (Examples 1 and 2, FIGS. 1 and 2), Plasma-free choline concentration can be determined by high-pressure liquid chromatography (HPLC) and gas chromatography-mass spectrometry according to protocols known in the art (Pomfret et. al.: Measurement of choline and choline metabolite concentrations using high pressure liquid chromatography and gas chromatography-mass spectrometry. Anal Biochem. 1989; 180: 85-90). […] As described before, liver damage (cholestasis) may be determined by increased aminotransferase levels. […]

[6] = choline derivative low, 15 mmol/L in LE 10%
[7] = plasma, day 5 to day 17 of parenteral nutrition, choline derivative 31 mmol/L (high) in LE 10%
[8] = choline derivative high, 31 mmol/L in LE 10%, versus LE 10% alone
[9] = choline derivative high, 31 mmol/L in LE 10%
[10] = phosphatidylcholine as contained in the lipid emulsion(s)

| Stability of lipid emulsion upon sterilization (Comment) ([2]; 30 mmol/L, lipid emulsions tested LE 10, 20 %) | Compound | effect on liver vacuolation (histopathological examination) [1, 6] | Stability of lipid emulsion upon sterilization (Comment) ([2]; 30 mmol/L, lipid emulsion tested LE 10 %) | stability of the lipid emulsions during sterilization (heat) [2] | development of ALT activity [3, 7] | liver to body weight ratio [4, 8] | effect on liver vacuolation (histopathological examination) [1, 9] | ALT activity, change versus normal value ([5]; GPC 40 mmol/L in lipid emulsion, normal (LE 10%) or reduced (LE 13%) phytosterol content) | Stability of lipid emulsion upon sterilization (Comment) ([2]; 15 mmol/L, lipid emulsions tested LE 10, 13, 20 %) | ALT activity, change versus normal value [5, 10] | development of ALT activity ([3]; phosphatidylcholine as contained in LE lipid emulsion, 17 days parenteral nutrition) | liver to body weight ratio [4, 10] |
| --- | --- | --- | --- | --- | --- | --- | --- | --- | --- | --- | --- | --- |
|  | C[N+](C)(C)CCOP(=O)(O)OP(=O)([O-])OC[C@H]1O[C@@H](n2ccc(N)nc2=O)[C@H](O)[C@@H]1O [CDP-choline, cytidine diphosphate-choline] | also had an effect | Phase separation | destabilize the lipid emulsions during sterilization | ALT activity neither significantly increases or decreases | reduction of the ratio |  |  |  |  |  |  |
| Stable emulsion | C[N+](C)(C)CCOP(=O)([O-])OC[C@@H](O)CO [GPC, (2-{[(2S)-2,3-dihydroxypropylphosphonato]oxy}ethyl)trimethylazanium] | significantly better |  | remained stable | clear drop in ALT activity; also recorded: most pronounced | most pronounced reduction of the ratio | significantly better | significant decrease of ALT activity |  |  |  |  |
|  | C[N+](C)(C)CCO.[Cl-] [choline chloride, (2-Hydroxyethyl)trimethylammonium chloride] | fared better than those with only saline or lipid emulsion without any choline derivative |  | destabilize the lipid emulsions during sterilization | ALT activity neither significantly increases or decreases | reduction of the ratio | fared better than those with only saline or lipid emulsion without any choline derivative |  | Phase separation |  |  |  |
|  | phosphatidylcholine |  |  |  |  |  |  |  |  | does not seem to have any effect | does not seem to have any effect | does not seem to have any effect |
